A value given as a limit tells only on which side of the number the result lay.

In one data set the test system is P. acnes (+). Nature of the data set: porfimer sodium aPDT, planktonic culture. The note with it: 630 nm, kill at 75 J/cm2 (light dose 50-100 J/cm2), porfimer sodium 150 μg/mL. It counts as cell-based, Proprionibacterium acnes (Cutibacterium acnes). The procedure:
(§1) Bacteria were routinely cultured using tryptic soy broth or agar at 37° C. in a 5% CO2 incubator. Bacteria were isolated and suspended with 0.9% NaCl to an Optical Density (OD) of 0.1 taken at 630 nm, to generate the inoculum used for either planktonic or biofilm assays.
(§2) Experiments using planktonic cultures were carried out using M. catarrhalis, as a standard for further comparisons and to determine the effective drug concentration, porfimer sodium incubation time and light dose parameters which would provide an effective cell kill at the level of 5-7 logs. Once determined the experiments were repeated for all other bacterial strains examined.
(§3) The colony forming units (CFU) per mL of the starting inoculum for every experiment was determined by dilution plating. […]
(§4) Bacteria were exposed to 630 nm laser light via a fiber optic with a lens affixed to the distal end to provide a uniform diverging light field. […] Power output of the laser was measured using a UDT/Gamma Scientific 371 optical power meter and an integrating sphere. […]
(§5) Biofilms were formed on glass coupons in culture dishes containing a bacterial inoculum for 48 hours under conditions specific to the strain. […] Power output of the laser was measured using a UDT/Gamma Scientific 371 optical power meter and an integrating sphere. […]

The next data set deals with S. aureus (+). Nature of the data set: porfimer sodium aPDT, planktonic culture. The note with it: 630 nm, 200 J/cm2, porfimer sodium 125 μg/mL. It counts as cell-based, Staphylococcus aureus. As for the experimental part:
as §1, §2, §3, §4, §5

The next data set relates to B. thurigiensis (+). Description: porfimer sodium aPDT, planktonic culture. Format: cell-based, Bacillus thuringiensis. Conditions: 630 nm, 200 J/cm2, porfimer sodium 125 μg/mL. The procedure: as §1, §2, §3, §4, §5
In another data set the test system is H. influenza (−). Description: porfimer sodium aPDT, planktonic culture. Format: cell-based, Haemophilus influenza. The note with it: 630 nm, 200 J/cm2, porfimer sodium 125 μg/mL. As for the experimental part:
as §1, §2, §3, §4, §5

A further data set has as its system S. pneumo (+). Description: porfimer sodium aPDT, planktonic culture. It counts as cell-based, Streptococcus pneumoniae. Conditions: 630 nm, 100 J/cm2, porfimer sodium 125 μg/mL. As for the experimental part: as §1, §2, §3, §4, §5
In another data set the test system is P. gingivalis (−). Nature of the data set: porfimer sodium aPDT, 48 hour biofilm culture. Conditions: 630 nm, kill at 100 J/cm2 (light dose 75-100 J/cm2), porfimer sodium 250 μg/mL. Format: cell-based, Porphyromonas gingivalis. As for the experimental part: as §1
The colony forming units (CFU) per mL of the starting inoculum for every experiment was determined by dilution plating. Control samples were exposed to laser at 630 nm in the absence of porfimer sodium, porfimer sodium in the absence of laser exposure, or in saline alone in the absence of porfimer sodium and 630 nm laser light. All experimental samples were dilution plated to enumerate viable CFU's. Three independent replicates were performed for each reaction condition per strain per assay. […]
as §4, §5

For data set [1], the system named is planktonic and biofilm bacterial populations. Description: porfimer sodium photodynamic therapy in vitro, overall summary. Format: cell-based. The procedure: This study evaluated the bactericidal efficacy of porfimer sodium based photodynamic therapy against standard and antibiotic resistant bacterial strains in planktonic and biofilm cultures. The primary efficacy endpoint was the overall cell kill analysis as determined by the enumeration of viable colony forming assays post PDT treatments as analyzed using the unpaired students two-tailed t test on log transformed data.
Planktonic cultures were prepared by adding bacteria to glass vials with saline and porfimer sodium to a final concentration ranging from 125 μg/ml to 150 μg/ml.
Biofilms were formed on glass coupons in culture dishes containing a bacterial inoculum for 48 hours under conditions specific to the strain. The glass coupon attached biofilms were then rinsed with saline, by dipping method, prior to the administration of the porfimer sodium. The biofilms were incubated in the dark for 15-30 minutes with a reconstituted saline solution of porfimer sodium at final concentrations ranging from 75 μg/ml-250 μg/ml. The porfimer sodium treated biofilms were then exposed to light doses at 630 nm light of 50-200 J/cm^2 at a power density of 150 milliwatts per cm^2. […] Power output of the laser was measured using a UDT/Gamma Scientific 371 optical power meter and an integrating sphere. […]

The nature of data set [2]: in vitro human skin permeation, flow through diffusion cell. It counts as in vitro ADME. Conditions: 24 hours post application. The procedure:
A study was completed to show the ability of the formulation to deliver the drug into human skin in an in vitro setting, while retaining the API within the appropriate skin layers.
In this experiment, TEWL for each diffusion cell would was measured and recorded before test article applications. A range of not more than 25 g/m2/h will be acceptable for this study. An automated in-line flow through diffusion cell system (PermeGear Collector FC 33, Version 3.1) was used to assess drug in the skin permeation experiment. Test articles were uniformly dispensed onto the skin tissue surface using a positive displacement pipette, set to deliver 7.8 μL. The study was performed under dark environment and closed to ambient conditions. […] The swabs and the tape strips were analyzed upon request. […] The separated samples were placed in respective pre-weighed labelled vials and weight of tissues were recorded.
Epidermal and dermal samples were processed and homogenized while maintaining a dark environment using the following protocol: 500 μL of homogenizing mixture, Water: Acetonitrile, 1:1 (v/v), was added to the labelled tubes containing the skin samples. […] The following samples were analyzed for drug content: Receptor solution samples at different time-points; skin samples (epidermis and dermis for each cell at the final time point), tape strips and cotton swabs analyzed for mass balance determination. […]

With porfimer sodium, the Rate of kill is 7Log in the data set with P. acnes (+); more than 7Log in the data set with S. aureus (+); more than 6Log in the data set on B. thurigiensis (+); 4Log in the data set with H. influenza (−); more than 4Log with S. pneumo (+); 7Log in the data set on P. gingivalis (−). Further, the “log reductions in bacterial loads” value in data set [1] is listed as 5-6 log. In addition, the “reduction in bacterial loads” value in data set [1] is more than 99%. The “skin layer where porfimer sodium permeation was found” value in data set [2] is reported as “predominantly found in the epidermal layers of the skin”.

(Values after patent publication US12090204B2, “Photodynamic therapy compositions and methods of use thereof” (Pinnacle Biologics, Inc., priority 2020, dated 2024).)
